The results in this text go back to patent US8476273B2, “Small molecule inhibitors of Lck SH2 domain binding” (University of Maryland, Baltimore, priority 2007, dated 2013).

“Also recorded” adds a separate entry of the source.

The target in assay [1] is T1, Lck SH2 domain (Homo sapiens, UniProt P06239).
T1 construct: GST
As to the kind of experiment: solid phase EIA of Lck SH2 domain binding to CD3 ζ chain ITAM peptide. Conditions: screening concentration of 100 μM. The text has this:
Compounds have been identified that inhibited Lck SH2 domain binding to the CD3 ζ chain ITAM peptide using a combination of CADD and biological assays using a solid phase EIA assay developed in our laboratory.
(§1) Lck kinase is a member of Src family kinases including Fyn, Lyn, and Hck that have SH2 domains sharing significant sequence homologies at βD5, βE4, EF1 and βG4 sites where these amino acids form the pY+3 binding pocket. Accordingly, it was important to test inhibition specificities of compounds against SH2 domains of these Src kinases and other signal transduction molecules involved in TCR proximal signaling. All 42 compounds identified in the above assay were subjected to specificity screening using a solid phase EIA assay using 7 different GST-SH2 domains (Lck, Fyn, Lyn, Hck, Src, She and Grb2).
(§2) All the compounds that had >40% inhibitory effect in the cellular assays were tested in the solid phase specificity screening assay and three compounds, 72, 87 and 241 were identified to be specific to Lck. Due to the fact that these compounds were specific to Lck SH2 domain, in vitro and in vivo assays described below were conducted using these 3 compounds.

The test system of assay [2] is GST-SH2 domains (Fyn, Lyn, Hck, Src, She and Grb2). As to the kind of experiment: solid phase EIA specificity screening with other GST-SH2 domains. Conditions: screening concentration of 100 μM. The format is binding.
Description: as §1, §2

In assay [3] the test system is Mtb-induced adjuvant arthritis. As to the kind of experiment: Mtb-induced adjuvant arthritis (AA) in Lewis rats. It counts as in vivo, Lewis rat. Here is the method:
FIG. 4A is a line graph showing the effect of SMILS in a preventive treatment regimen. […] Mtb was injected on day 0. ▭—Untreated group, ◯—SMILS treated group.
FIG. 4B is a line graph showing the effect of SMILS in therapeutic-1 treatment regimen. […] Mtb was injected on day 0. ⋄—Untreated group, ◯—SMILS treated group (3 mg/kg body weight), ●—SMILS (1 mg/kg body weight) treatment group.
FIG. 4C is a line graph showing the effects of SMILS in therapeutic-2 treatment regimen. […] Mtb was injected on day 0. ⋄—Untreated group, ●—SMILS (3 mg/kg body weight) treatment group.
Pilot experiments using Lewis rats were carried out to assess the effect of SMILS on Mtb-induced AA. The initial experiments described here were carried out using compound 241. Experiments were carried out to test the efficacy of SMILS (3 mg/kg body weight injected i.p.) in three treatment regimens: i.e., preventive: (SMILS injected at −3, −2, −1, 0 days before Mtb injection); therapeutic 1: at the time of AA induction (SMILS injected at 0, 1, 2, 3, 4 days after Mtb injection); and therapeutic 2: at the time of clinical symptom appearance (SMILS injected at 10, 11, 12, 13 days after Mtb injection).
In addition to the visual scoring of the joint swelling, histological examinations of joints from all 4 paws collected at the peak of the disease were carried out.

T1 sequence (P06239 127-224 limits assumed): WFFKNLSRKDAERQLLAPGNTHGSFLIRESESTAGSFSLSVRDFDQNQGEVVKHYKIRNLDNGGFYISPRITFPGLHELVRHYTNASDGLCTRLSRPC

For `O=C(O)COc1ccccc1/C=N/NC(=O)c1cc(Cl)ccc1O` [Compound 72], the “specificity towards Lck SH2 domain” value in assay [1] is given as “showed specificities towards Lck SH2 domain”. The “inhibitory activity against the other SH2 domains” value in assay [2] is given as “little or no inhibitory activity”.

With `O=C(NCCSc1ccccc1)c1cncc(Br)c1` [Compound 241], the “specificity towards Lck SH2 domain” value in assay [1] is listed as “showed specificities towards Lck SH2 domain”. For the same compound, the “inhibitory activity against the other SH2 domains” value in assay [2] was “little or no inhibitory activity”. The “joint swelling in Mtb-induced AA, therapeutic 1 regimen” value in assay [3] (3 mg/kg i.p. on days 0, 1, 2, 3, 4 after Mtb, Lewis rats) is given as “significantly reduced the joint swellings in all rats”. Also, the “joint swelling in Mtb-induced AA, therapeutic 2 regimen” value in assay [3] (3 mg/kg i.p. on days 10, 11, 12, 13 after Mtb, Lewis rats) was “significantly reduced the joint swellings in all rats”. In assay [3] (3 mg/kg i.p. on days -3, -2, -1, 0, Lewis rats), the “joint swelling in Mtb-induced AA, preventive regimen” value was “delayed the onset of joint swelling and reduced the severity of joint swellings”. In assay [3] (paws collected at the peak of the disease, AA rats), the “histological examination of joints” value was “absence of damage to the cartilage and inflammatory cells; also recorded: No infiltration of inflammatory cells is observed in the joint space”.
